Molecules are shown by their SMILES. Where a name gives a salt, the structure may show the parent alone.

In experiment [1] the test system is CCRF S-180. The experiment is described as follows: Antitumor activity against mouse S180 cells xenografted in Kunming mouse at 10 mg/kg, iv administered on day 1 and 4. It is filed as functional. To be noted: for inhibition in vivo at 10 mg/kg: Mus musculus.
Another experiment relates to A549. The experiment in a line: Cytotoxicity against human A549 cells by sulforhodamine B assay. It is filed as functional, cell-based.
For another experiment, the system named is HeLa. The experiment in a line: Cytotoxicity against human HeLa cells by sulforhodamine B assay. Type of experiment: functional, cell-based.
The test system of experiment [2] is CCRF S-180. The experiment in a line: Antitumor activity against mouse S180 cells xenografted in Kunming mouse at 20 mg/kg, iv administered as single dose on day 1. It is filed as functional. To be noted: CCRF S-180, 24 h.
In experiment [3] the test system is CCRF S-180. The experiment is described as follows: Toxicity against mouse S180 cells xenografted in Kunming mouse at 10 mg/kg, iv administered on day 1 and 4. Also on record: dose 10 mg/kg. Type of experiment: functional, organism-based.

A word on the inhibition in vivo: it is the drop in the measured response relative to a control, in per cent. `CCC1=C[C@@H]2CN(C1)Cc1c([nH]c3ccccc13)[C@@](C(=O)OC)(c1cc3c(cc1OC)N(C)[C@H]1[C@@](O)(C(=O)OC)[C@H](OC(C)=O)[C@]4(CC)C=CCN5CC[C@]31[C@@H]54)C2` [VINORELBINE TARTRATE] displayed an inhibition in vivo at 10 mg/kg with CCRF S-180 [1] (CCRF S-180, iv, 24 h) of 62.5%.

In general, IC50 refers to the concentration that gives 50% inhibition. For `CCC1=C[C@@H]2CN(CCc3c([nH]c4ccccc34)[C@@](C(=O)OC)(c3cc4c(cc3OC)N(C)[C@H]3[C@@](O)(CNC(=O)c5ccc6c(c5)OCO6)[C@H](OC(C)=O)[C@]5(CC)C=CCN6CC[C@]43[C@@H]65)C2)C1`, the 50% inhibitory concentration (IC50) with A549 (Homo sapiens, A549) is 8 nM; with HeLa, 33 nM. This compound also yielded an inhibition in vivo at 10 mg/kg in the experiment on CCRF S-180 [1] (CCRF S-180, 24 h) of 58.1%. The compound also gave an inhibition in vivo at 20 mg/kg with CCRF S-180 [2] of 66.3%. In the experiment on CCRF S-180 [3], the Activity entry was “Not toxic”.

`CCC1=C[C@@H]2CN(C1)Cc1c([nH]c3ccccc13)[C@@](C(=O)OC)(c1cc3c(cc1OC)N(C)[C@H]1[C@@](O)(C(=O)OC)[C@H](OC(C)=O)[C@]4(CC)C=CCN5CC[C@]31[C@@H]54)C2`: the Activity result in the experiment with CCRF S-180 [3] is “Not toxic”.

With `CCC1=C[C@@H]2CN(CCc3c([nH]c4ccccc34)[C@@](C(=O)OC)(c3cc4c(cc3OC)N(C)[C@H]3[C@@](O)(CNC(=O)c5cccc(Cl)c5)[C@H](OC(C)=O)[C@]5(CC)C=CCN6CC[C@]43[C@@H]65)C2)C1`, the IC50 in the experiment on A549 (Homo sapiens, A549) was 26 nM; in the experiment with HeLa it was 67 nM.

In the case of `CCC1=C[C@@H]2CN(CCc3c([nH]c4ccccc34)[C@@](C(=O)OC)(c3cc4c(cc3OC)N(C)[C@H]3[C@@](O)(CNC(=O)C(C)(C)C)[C@H](OC(C)=O)[C@]5(CC)C=CCN6CC[C@]43[C@@H]65)C2)C1`, the half-inhibitory concentration (IC50) with A549 (Homo sapiens, A549) was 95 nM; in the experiment with HeLa, 61 nM.

Turning to `CCC1=C[C@@H]2CN(CCc3c([nH]c4ccccc34)[C@@](C(=O)OC)(c3cc4c(cc3OC)N(C)[C@H]3[C@@](O)(CNC(=O)c5ccccc5Cl)[C@H](OC(C)=O)[C@]5(CC)C=CCN6CC[C@]43[C@@H]65)C2)C1`, the IC50 stood at 24 nM in the experiment with A549 (Homo sapiens, A549) and 89 nM in the experiment with HeLa.

Take `CCC1=C[C@@H]2CN(CCc3c([nH]c4ccccc34)[C@@](C(=O)OC)(c3cc4c(cc3OC)N(C)[C@H]3[C@@](O)(CNC(=O)C5CC5)[C@H](OC(C)=O)[C@]5(CC)C=CCN6CC[C@]43[C@@H]65)C2)C1`: the half-maximal inhibitory concentration (IC50) in the experiment with A549 (Homo sapiens, A549) amounted to 26 nM; in the experiment with HeLa, 35 nM. The compound further gave an inhibition in vivo at 10 mg/kg in the experiment on CCRF S-180 [1] (CCRF S-180, 24 h) of 81.3%. The same compound showed an inhibition in vivo at 20 mg/kg in the experiment with CCRF S-180 [2] of 88.8%.

In the case of `CCC1=C[C@@H]2CN(CCc3c([nH]c4ccccc34)[C@@](C(=O)OC)(c3cc4c(cc3OC)N(C)[C@H]3[C@@](O)(CNC(=O)CC(C)C)[C@H](OC(C)=O)[C@]5(CC)C=CCN6CC[C@]43[C@@H]65)C2)C1`, the IC50 in the experiment on A549 (Homo sapiens, A549) came to 152 nM; with HeLa, 85 nM.

Consider `CCC1=C[C@@H]2CN(CCc3c([nH]c4ccccc34)[C@@](C(=O)OC)(c3cc4c(cc3OC)N(C)[C@H]3[C@@](O)(CNC(=O)c5ccc(F)cc5)[C@H](OC(C)=O)[C@]5(CC)C=CCN6CC[C@]43[C@@H]65)C2)C1`, for which the concentration for half-maximal inhibition (IC50) in the experiment with A549 (Homo sapiens, A549) was 20 nM; in the experiment on HeLa, 25 nM.

As for `CCC1=C[C@@H]2CN(CCc3c([nH]c4ccccc34)[C@@](C(=O)OC)(c3cc4c(cc3OC)N(C)[C@H]3[C@@](O)(CNC(=O)CC(C)(C)C)[C@H](OC(C)=O)[C@]5(CC)C=CCN6CC[C@]43[C@@H]65)C2)C1`, the IC50 with A549 (Homo sapiens, A549) is 115 nM; in the experiment on HeLa it was 93 nM.

Consider `CCC1=C[C@@H]2CN(CCc3c([nH]c4ccccc34)[C@@](C(=O)OC)(c3cc4c(cc3OC)N(C)[C@H]3[C@@](O)(CNC(=O)c5ccncc5)[C@H](OC(C)=O)[C@]5(CC)C=CCN6CC[C@]43[C@@H]65)C2)C1`, for which the half-maximal inhibitory concentration (IC50) with A549 (Homo sapiens, A549) came out at 27 nM; in the experiment on HeLa, 24 nM.

For `CCC1=C[C@@H]2CN(CCc3c([nH]c4ccccc34)[C@@](C(=O)OC)(c3cc4c(cc3OC)N(C)[C@H]3[C@@](O)(CNC(=O)c5ccc(Cl)cc5)[C@H](OC(C)=O)[C@]5(CC)C=CCN6CC[C@]43[C@@H]65)C2)C1`, the IC50 came to 25 nM in the experiment with A549 (Homo sapiens, A549) and 47 nM in the experiment on HeLa.

Take `CCC(=O)NC[C@@]1(O)[C@H](OC(C)=O)[C@]2(CC)C=CCN3CC[C@@]4(c5cc([C@@]6(C(=O)OC)C[C@@H]7C=C(CC)CN(CCc8c6[nH]c6ccccc86)C7)c(OC)cc5N(C)[C@@H]14)[C@@H]32`: the concentration for half-maximal inhibition (IC50) was determined as 43 nM with A549 (Homo sapiens, A549) and 57 nM in the experiment on HeLa. This compound also registered an inhibition in vivo at 10 mg/kg with CCRF S-180 [1] (CCRF S-180, 24 h) of 84.4%. In the experiment on CCRF S-180 [2], this compound yielded an inhibition in vivo at 20 mg/kg of 90%. For the same compound, in the experiment on CCRF S-180 [3], the Activity result is “Not toxic”.

With `CCCC(=O)NC[C@@]1(O)[C@H](OC(C)=O)[C@]2(CC)C=CCN3CC[C@@]4(c5cc([C@@]6(C(=O)OC)C[C@@H]7C=C(CC)CN(CCc8c6[nH]c6ccccc86)C7)c(OC)cc5N(C)[C@@H]14)[C@@H]32`, the IC50 in the experiment on A549 (Homo sapiens, A549) came to 96 nM; in the experiment with HeLa, 97 nM.

Take `CCC1=C[C@@H]2CN(CCc3c([nH]c4ccccc34)[C@@](C(=O)OC)(c3cc4c(cc3OC)N(C)[C@H]3[C@@](O)(CNC(=O)c5ccccc5)[C@H](OC(C)=O)[C@]5(CC)C=CCN6CC[C@]43[C@@H]65)C2)C1`: the concentration for half-maximal inhibition (IC50) in the experiment with A549 (Homo sapiens, A549) was found to be 27 nM; in the experiment with HeLa, 26 nM.

In the case of `CCC1=C[C@@H]2CN(CCc3c([nH]c4ccccc34)[C@@](C(=O)OC)(c3cc4c(cc3OC)N(C)[C@H]3[C@@](O)(CNC(=O)c5ccccc5OC)[C@H](OC(C)=O)[C@]5(CC)C=CCN6CC[C@]43[C@@H]65)C2)C1`, the IC50 came out at 10 nM in the experiment with A549 (Homo sapiens, A549) and 21 nM in the experiment with HeLa.

`CCC1=C[C@@H]2CN(CCc3c([nH]c4ccccc34)[C@@](C(=O)OC)(c3cc4c(cc3OC)N(C)[C@H]3[C@@](O)(CNC(=O)C5CCC5)[C@H](OC(C)=O)[C@]5(CC)C=CCN6CC[C@]43[C@@H]65)C2)C1`: the IC50 turned out to be 34 nM in the experiment with A549 (Homo sapiens, A549) and 68 nM in the experiment with HeLa.

As for `CCC1=C[C@@H]2CN(CCc3c([nH]c4ccccc34)[C@@](C(=O)OC)(c3cc4c(cc3OC)N(C)[C@H]3[C@@](O)(CNC(C)=O)[C@H](OC(C)=O)[C@]5(CC)C=CCN6CC[C@]43[C@@H]65)C2)C1`, the IC50 with A549 (Homo sapiens, A549) turned out to be 22 nM; with HeLa, 444 nM.

On to `CCC1=C[C@@H]2CN(C1)Cc1c([nH]c3ccccc13)[C@@](C(=O)OC)(c1cc3c(cc1OC)N(C)[C@H]1[C@@](O)(C(=O)OC)[C@H](OC(C)=O)[C@]4(CC)C=CCN5CC[C@]31[C@@H]54)C2` [VINORELBINE], for which, in the experiment with A549 (a549), it took 30 nM to reach half-maximal inhibition (IC50). In addition, the “inhibition (INH)” value in the experiment with CCRF S-180 [1] worked out at 69.4%.

In the case of `CCC1=C[C@@H]2CN(CCc3c([nH]c4ccccc34)[C@@](C(=O)OC)(c3cc4c(cc3OC)N(C)[C@H]3[C@@](O)(CNC(=O)c5ccc([N+](=O)[O-])cc5)[C@H](OC(C)=O)[C@]5(CC)C=CCN6CC[C@]43[C@@H]65)C2)C1`, the half-maximal inhibitory concentration (IC50) came to 33 nM in the experiment on A549 (Homo sapiens, A549) and 23 nM in the experiment on HeLa.

Consider `CCC1=C[C@@H]2CN(CCc3c([nH]c4ccccc34)[C@@](C(=O)OC)(c3cc4c(cc3OC)N(C)[C@H]3[C@@](O)(CNC(=O)Cc5ccccc5)[C@H](OC(C)=O)[C@]5(CC)C=CCN6CC[C@]43[C@@H]65)C2)C1`, for which the half-inhibitory concentration (IC50) amounted to 39 nM in the experiment with A549 (Homo sapiens, A549) and 78 nM with HeLa.

Consider `CCC1=C[C@@H]2CN(CCc3c([nH]c4ccccc34)[C@@](C(=O)OC)(c3cc4c(cc3OC)N(C)[C@H]3[C@@](O)(CNC(=O)c5ccc(OC)cc5)[C@H](OC(C)=O)[C@]5(CC)C=CCN6CC[C@]43[C@@H]65)C2)C1`, for which the concentration for half-maximal inhibition (IC50) with A549 (Homo sapiens, A549) stood at 30 nM; in the experiment with HeLa, 139 nM.

`CCC1=C[C@@H]2CN(CCc3c([nH]c4ccccc34)[C@@](C(=O)OC)(c3cc4c(cc3OC)N(C)[C@H]3[C@@](O)(CNC(=O)C(C)C)[C@H](OC(C)=O)[C@]5(CC)C=CCN6CC[C@]43[C@@H]65)C2)C1`: the 50% inhibitory concentration (IC50) with A549 (Homo sapiens, A549) stood at 101 nM; with HeLa, 132 nM.

Values taken from ChEMBL document CHEMBL1153037, “Synthesis and structure-activity relationship studies of cytotoxic anhydrovinblastine amide derivatives” (J Nat Prod, 2009).
